Experiments:
[1] = target: T1, rat CB2 receptors (Rattus norvegicus (Rat), UniProt Q9QZN9); assay: rat CB2 radioligand binding assay ([3H]CP 55,940 competition); conditions: HEK293 membranes, 0.5 nM [3H]CP 55,940
Description: HEK293 cells stably expressing rat CB2 receptors were grown until a confluent monolayer was formed. Briefly, the cells were harvested and homogenized in TE buffer (50 mM Tris-HCl, 1 mM MgCl2, and 1 mM EDTA) using a polytron for 2×10 second bursts in the presence of protease inhibitors, followed by centrifugation at 45,000×g for 20 minutes. The final membrane pellet was re-homogenized in storage buffer (50 mM Tris-HCl, 1 mM MgCl2, and 1 mM EDTA and 10% sucrose) and frozen at −78° C. until used. Saturation binding reactions were initiated by the addition of membrane preparation (protein concentration of 20 μg/well for rat CB2) into wells of a deep well plate containing [^3H]CP 55,940 (120 Ci/mmol, a nonselective CB agonist commercially available from Tocris) in assay buffer (50 mM Tris, 2.5 mM EDTA, 5 mM MgCl2, and 0.5 mg/mL fatty acid free BSA, pH 7.4). After 45 min incubation at 30° C., binding reaction was terminated by the addition of 300 μl/well of cold assay buffer followed by rapid vacuum filtration through a UniFilter-96 GF/C filter plates (pre-soaked in 1 mg/mL BSA for 2 hours). The bound activity was counted in a TopCount using Microscint-20. Saturation experiments were conducted with twelve concentrations of [^3H]CP 55,940 ranging from 0.01 to 8 nM. Competition experiments were conducted with 0.5 nM [^3H]CP 55,940 and five concentrations of displacing ligands selected from the range of 0.01 nM to 10 μM. The addition of 10 μM unlabeled CP 55,940 (Tocris, Ellisville, Mo.) was used to assess nonspecific binding.

[2] = target: T1, rat CB2 receptors; assay: rat CB2 cyclase functional assay (HitHunter cAMP); assay type: cell-based; conditions: HEK cells, forskolin 18 μM
Description: The cyclase functional assays were performed using the HitHunter™ cAMP assay kit from DiscoveRx (Fremont, Calif.) according to vendor's protocol. Briefly, HEK cells expressing CB2 or CB1 receptors (rat or human) were detached using cell dissociation buffer (Invitrogen, Carlsbad, Calif.), dispersed and placed in suspension at 10,000 cells per well in 96 well plates prior to the assay. Cell suspensions were incubated at 37° C. for 20 min with variable concentrations of test ligands and or 10 μM CP 55,940-positive control in the presence of a fixed concentration of forskolin (18 μM for rat CB2 and 37 μM for rat CB1) in Dulbescco's phosphate-buffered saline (Invitrogen, Carlsbad, Calif.) supplemented with bovine serum albumin (0.01% final concentration). The reactions were terminated by the addition of lysis buffer and the luminescence was detected following the procedure according to the manufacturer's instructions. EC50 values were calculated using sigmoidal dose-response curve fitting from Prism (GraphPad).

[3] = target: human CB2 receptors (Homo sapiens (Human), UniProt P34972); assay: human CB2 radioligand binding assay ([3H]CP 55,940 competition); conditions: HEK293 membranes, 0.5 nM [3H]CP 55,940
Description: HEK293 cells stably expressing human CB2 receptors were grown until a confluent monolayer was formed. Briefly, the cells were harvested and homogenized in TE buffer (50 mM Tris-HCl, 1 mM MgCl2, and 1 mM EDTA) using a polytron for 2×10 second bursts in the presence of protease inhibitors, followed by centrifugation at 45,000×g for 20 minutes. The final membrane pellet was re-homogenized in storage buffer (50 mM Tris-HCl, 1 mM MgCl2, and 1 mM EDTA and 10% sucrose) and frozen at −78° C. until used. Saturation binding reactions were initiated by the addition of membrane preparation (protein concentration of 5 μg/well for human CB2) into wells of a deep well plate containing [^3H]CP 55,940 (120 Ci/mmol, a nonselective CB agonist commercially available from Tocris) in assay buffer (50 mM Tris, 2.5 mM EDTA, 5 mM MgCl2, and 0.5 mg/mL fatty acid free BSA, pH 7.4). After 90 min incubation at 30° C., binding reaction was terminated by the addition of 300 μL/well of cold assay buffer followed by rapid vacuum filtration through a UniFilter-96 GF/C filter plates (pre-soaked in 1 mg/mL BSA for 2 hours). The bound activity was counted in a TopCount using Microscint-20. Saturation experiments were conducted with twelve concentrations of [^3H]CP 55,940 ranging from 0.01 to 8 nM. Competition experiments were conducted with 0.5 nM [^3H]CP 55,940 and five concentrations (0.01 nM to 10 μM) of displacing ligands. The addition of 10 μM unlabeled CP 55,940 (Tocris, Ellisville, Mo.) was used to assess nonspecific binding.

T1 sequence (Q9QZN9 whole entry): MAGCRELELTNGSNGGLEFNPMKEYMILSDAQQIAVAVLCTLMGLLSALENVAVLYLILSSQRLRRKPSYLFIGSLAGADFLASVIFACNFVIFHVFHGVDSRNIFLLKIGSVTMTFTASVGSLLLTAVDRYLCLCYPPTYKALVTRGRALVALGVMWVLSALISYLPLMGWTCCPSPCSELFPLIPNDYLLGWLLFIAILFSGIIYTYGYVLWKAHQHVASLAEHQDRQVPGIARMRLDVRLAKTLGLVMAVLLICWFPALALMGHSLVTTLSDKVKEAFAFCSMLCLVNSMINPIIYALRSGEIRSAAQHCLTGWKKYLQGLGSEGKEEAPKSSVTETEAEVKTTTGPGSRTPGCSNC
human CB2 receptors, sequence (P34972 whole entry): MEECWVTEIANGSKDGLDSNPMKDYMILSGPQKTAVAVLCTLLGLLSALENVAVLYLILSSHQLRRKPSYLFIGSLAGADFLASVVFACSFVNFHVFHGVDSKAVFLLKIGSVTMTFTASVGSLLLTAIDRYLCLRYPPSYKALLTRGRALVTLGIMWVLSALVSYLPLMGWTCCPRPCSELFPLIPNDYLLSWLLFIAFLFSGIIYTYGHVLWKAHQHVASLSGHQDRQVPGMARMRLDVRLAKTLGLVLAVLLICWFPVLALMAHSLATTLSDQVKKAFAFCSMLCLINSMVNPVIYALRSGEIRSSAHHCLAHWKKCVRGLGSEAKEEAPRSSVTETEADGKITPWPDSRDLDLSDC

Row | Compound | Ki [1] [nM] | EC50 [2] [nM] | Ki [3] [nM]
1 | CC(C)Cn1cc(C(C)(C)C)s/c1=N\C(=O)c1cc(Br)ccc1OC[C@@H]1CCCN1C [Example 1, 5-bromo-N-[(2Z)-5-tert-butyl-3-isobutyl-1,3-thiazol-2(3H)-ylidene]-2-{[(2S)-1-methylpyrrolidin-2-yl]methoxy}benzamide] | 19 | 0.75 | 27
2 | CCCCn1cc(C(C)(C)C)s/c1=N\C(=O)c1cc(Cl)ccc1OCC(N)=O [Example 2, 2-(2-amino-2-oxoethoxy)-N-[(2Z)-3-butyl-5-tert-butyl-1,3-thiazol-2(3H)-ylidene]-5-chlorobenzamide] | 1.1 | 0.07 | 3.1
3 | CC(C)Cn1cc(C(C)(C)C)s/c1=N\C(=O)c1cc(C(F)(F)F)ccc1OCc1ccco1 [Example 3, N-[(2Z)-5-tert-butyl-3-isobutyl-1,3-thiazol-2(3H)-ylidene]-2-(2-furylmethoxy)-5-(trifluoromethyl)benzamide] | 8.7 | 1.9 | 7.4
4 | CC(C)Cn1cc(C(C)(C)C)s/c1=N\C(=O)c1cc(Cl)ccc1OCC1CCO1 (stereo not drawn) [Example 4, N-[(2Z)-5-tert-butyl-3-isobutyl-1,3-thiazol-2(3H)-ylidene]-5-chloro-2-(oxetan-2-ylmethoxy)benzamide] | 5.2 | 0.23 | 9
5 | CC(C)Cn1cc(C(C)(C)C)s/c1=N\C(=O)c1cc(C(F)(F)F)ccc1OC[C@@H]1CCCN1C [Example 5, N-[(2Z)-5-tert-butyl-3-isobutyl-1,3-thiazol-2(3H)-ylidene]-2-{[(2S)-1-methylpyrrolidin-2-yl]methoxy}-5-(trifluoromethyl)benzamide] | 18 | 1.2 | 39
6 | CC(C)Cn1cc(C(C)(C)C)s/c1=N\C(=O)c1cc(C(F)(F)F)ccc1OCCN1CCCC1 [Example 7, N-[(2Z)-5-tert-butyl-3-isobutyl-1,3-thiazol-2(3H)-ylidene]-2-(2-pyrrolidin-1-ylethoxy)-5-(trifluoromethyl)benzamide] | 12 | 1.3 | 32
7 | CC(C)Cn1cc(C(C)(C)C)s/c1=N\C(=O)c1cc(C(F)(F)F)ccc1OCC1CCOC1 (stereo not drawn) [Example 8, N-[(2Z)-5-tert-butyl-3-isobutyl-1,3-thiazol-2(3H)-ylidene]-2-(tetrahydrofuran-3-ylmethoxy)-5-(trifluoromethyl)benzamide] | 2.4 | 0.058 | 5
8 | CCCCn1cc(C(C)(C)C)s/c1=N\C(=O)c1cc(C(F)(F)F)ccc1OC[C@@H]1CCCN1C [Example 9, N-[(2Z)-3-butyl-5-tert-butyl-1,3-thiazol-2(3H)-ylidene]-2-{[(2S)-1-methylpyrrolidin-2-yl]methoxy}-5-(trifluoromethyl)benzamide] | 7.7 | 0.97 | 9.2
9 | CN1CCC[C@H]1COc1ccc(C(F)(F)F)cc1C(=O)/N=c1\sc(C(C)(C)C)cn1CC1(O)CCC1 [Example 11, N-[(2Z)-5-tert-butyl-3-[(1-hydroxycyclobutyl)methyl]-1,3-thiazol-2(3H)-ylidene]-2-{[(2S)-1-methylpyrrolidin-2-yl]methoxy}-5-(trifluoromethyl)benzamide] | 32 | 0.41 | 95
10 | CC(C)Cn1cc(C(C)(C)C)s/c1=N\C(=O)c1cc(C(F)(F)F)ccc1OC[C@@H]1CCN1C [Example 12, N-[(2Z)-5-tert-butyl-3-isobutyl-1,3-thiazol-2(3H)-ylidene]-2-{[(2S)-1-methylazetidin-2-yl]methoxy}-5-(trifluoromethyl)benzamide] | 26 | 3.5 | 37
11 | CC(C)Cn1cc(C(C)(C)C)s/c1=N\C(=O)c1cc(C(F)(F)F)ccc1OC[C@@H]1CCN1 [Example 14, 2-[(2S)-azetidin-2-ylmethoxy]-N-[(2Z)-5-tert-butyl-3-isobutyl-1,3-thiazol-2(3H)-ylidene]-5-(trifluoromethyl)benzamide] | 13 | 0.36 | 44
12 | CC(=O)OCCOc1ccc(C(F)(F)F)cc1C(=O)/N=c1\sc(C(C)(C)C)cn1CC(C)C [Example 18, 2-[2-({[(2Z)-5-tert-butyl-3-isobutyl-1,3-thiazol-2(3H)-ylidene]amino}carbonyl)-4-(trifluoromethyl)phenoxy]ethyl acetate] | 1.4 | 0.19 | 16
13 | CC(C)Cn1cc(C(C)(C)C)s/c1=N\C(=O)c1cc(C(F)(F)F)ccc1OCCO [Example 19, N-[(2Z)-5-tert-butyl-3-isobutyl-1,3-thiazol-2(3H)-ylidene]-2-(2-hydroxyethoxy)-5-(trifluoromethyl)benzamide] | 0.15 | 0.13 | 0.73
14 | CCCCn1/c(=N/C(=O)c2cc(C(F)(F)F)ccc2OCC(C)(C)O)sc2ccncc21 [Example 21, N-[(2Z)-3-butyl[1,3]thiazolo[4,5-c]pyridin-2(3H)-ylidene]-2-(2-hydroxy-2-methylpropoxy)-5-(trifluoromethyl)benzamide] | 9.3 | 0.58 | 5.4
15 | CCCCn1/c(=N/C(=O)c2cc(C(F)(F)F)ccc2OCCNC(C)=O)sc2ccncc21 [Example 25, 2-[2-(acetylamino)ethoxy]-N-[(2Z)-3-butyl[1,3]thiazolo[4,5-c]pyridin-2(3H)-ylidene]-5-(trifluoromethyl)benzamide] | 3.6 | 0.11 | 1.5
16 | CCCCn1/c(=N/C(=O)c2cc(C(F)(F)F)ccc2OC[C@H](C)O)sc2ccncc21 [Example 29, N-[(2Z)-3-butyl[1,3]thiazolo[4,5-c]pyridin-2(3H)-ylidene]-2-{[(2S)-2-hydroxypropyl]oxy}-5-(trifluoromethyl)benzamide] | 2.5 | 1.4 | 2

Source: US8895592B2, “Compounds as cannabinoid receptor ligands” (priority 2008, dated 2014)
